Test results reported in ChEMBL document CHEMBL1142830, “QSAR studies on structurally similar 2-(4-methanesulfonylphenyl)pyran-4-ones as selective COX-2 inhibitors: a Hansch approach” (Bioorg Med Chem Lett, 2005).

Target: T1, Prostaglandin G/H synthase 2 (Homo sapiens, UniProt P35354)
T1 sequence (P35354 whole entry): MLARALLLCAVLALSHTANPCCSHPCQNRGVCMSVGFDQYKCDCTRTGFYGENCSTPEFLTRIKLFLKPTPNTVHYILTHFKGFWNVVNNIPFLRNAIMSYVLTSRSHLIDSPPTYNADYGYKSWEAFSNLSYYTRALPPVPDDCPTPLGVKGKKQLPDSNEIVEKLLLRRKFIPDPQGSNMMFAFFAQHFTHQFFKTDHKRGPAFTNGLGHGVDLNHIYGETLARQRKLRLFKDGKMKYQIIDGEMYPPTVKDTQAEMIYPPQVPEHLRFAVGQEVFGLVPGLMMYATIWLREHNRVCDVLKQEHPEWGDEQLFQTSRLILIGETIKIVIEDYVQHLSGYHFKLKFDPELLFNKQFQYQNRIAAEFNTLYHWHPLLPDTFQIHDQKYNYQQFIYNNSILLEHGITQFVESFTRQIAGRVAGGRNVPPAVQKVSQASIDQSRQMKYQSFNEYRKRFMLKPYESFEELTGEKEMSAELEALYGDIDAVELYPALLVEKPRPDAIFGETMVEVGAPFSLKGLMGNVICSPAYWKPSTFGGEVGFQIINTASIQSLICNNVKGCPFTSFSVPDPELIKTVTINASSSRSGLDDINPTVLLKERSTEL
Experiment: Inhibitory concentration for Cyclooxygenase-2 (Prostaglandin G/H synthase 2) in human whole blood
Assay type: tissue-based

**Q.** For `CS(=O)(=O)c1ccc(-c2occ(Cl)c(=O)c2-c2ccc(-c3ccccc3)c(F)c2)cc1`, which IC50 is on record?
**A.** The IC50 was 87.9 µM.

**Q.** With `Cc1cc(=O)c(Oc2ccc(Cl)cc2Cl)c(-c2ccc(S(C)(=O)=O)cc2)o1` as the compound, how does the IC50 read?
**A.** Its IC50 is 3.38 µM.

**Q.** For `Cc1cc(=O)c(Oc2ccc(OC(F)(F)F)cc2)c(-c2ccc(S(C)(=O)=O)cc2)o1`, which IC50 is on record?
**A.** Its IC50 is 2.45 µM.
